The subject of data set [1] is L1210. Description: Cytotoxicity against mouse L1210 cells assessed as growth inhibition. In kind it is functional.
A further data set deals with HeLa. Description: Cytotoxicity against human HeLa cells assessed as growth inhibition. In kind it is functional.
The nature of data set [2]: Stability of the compound in presence of CR/dCR deaminase. Format: ADME.
Data set [3] has as its system L1210. The data set can be described thus: Antitumor activity against mouse L1210 cells allografted in DBA/2 HaDD mouse assessed as survival at 75 mg/kg, ip bid administered for 2 days (reference value: 8.7 days). Format: functional. The following applies: route intraperitoneal.
Data set [4] has as its system L1210. Description: Antitumor activity against mouse L1210 cells allografted in DBA/2 HaDD mouse assessed as survival at 40 mg/kg, ip bid administered for 2 days (reference value: 8.7 days). Format: functional. Particulars: route intraperitoneal.
For a further data set, the system named is MOLT-4. Description: Cytotoxicity against human MOLT4F cells assessed as growth inhibition. In kind it is functional.

Bounds are passed on as bounds.

As for `Nc1ccn([C@@H]2O[C@H](CO)[C@@H](O)[C@@H]2N)c(=O)n1`, the GI50 (as a rule, the concentration at which growth is held to half of that of the control) in the data set on L1210 [1] is 4 µM; with HeLa, 30 µM. Besides, in data set [2], the Stability entry is given as “Stable”. Further, in the data set on L1210 [3], the Survival is above 120 days.
For the molecule `[N-]=[N+]=N[C@H]1[C@H](O)[C@@H](CO)O[C@H]1n1ccc(N)nc1=O` [CYTARAZID], the GI50 stood at 0.6 µM in the data set with L1210 [1], 0.2 µM with HeLa and 0.07 µM in the data set with MOLT-4. The Survival with L1210 [4] is above 120 days. Also, the Stability result in data set [2] was “Stable”.
